In ChEMBL document CHEMBL3431459, “Roche carnitine palmitoyltransferase modulator screening data (supplementary data associated with the publication CHEMBL2216752)”:
≈ marks a conversion by molar mass, not a printed value.

Key:
[1] = SUPPLEMENTARY: Lyophilisation Solubility Assay (LYSA); format: physicochemical; settings: read-out: Kinetic_solubility
[2] = molecular target: T1, Carnitine O-palmitoyltransferase 1, liver isoform (Homo sapiens, UniProt P50416); experiment: (§1) SUPPLEMENTARY: Inhibition of Carnitine palmitoyltransferase 1, liver isoform
T1 sequence (P50416 whole entry): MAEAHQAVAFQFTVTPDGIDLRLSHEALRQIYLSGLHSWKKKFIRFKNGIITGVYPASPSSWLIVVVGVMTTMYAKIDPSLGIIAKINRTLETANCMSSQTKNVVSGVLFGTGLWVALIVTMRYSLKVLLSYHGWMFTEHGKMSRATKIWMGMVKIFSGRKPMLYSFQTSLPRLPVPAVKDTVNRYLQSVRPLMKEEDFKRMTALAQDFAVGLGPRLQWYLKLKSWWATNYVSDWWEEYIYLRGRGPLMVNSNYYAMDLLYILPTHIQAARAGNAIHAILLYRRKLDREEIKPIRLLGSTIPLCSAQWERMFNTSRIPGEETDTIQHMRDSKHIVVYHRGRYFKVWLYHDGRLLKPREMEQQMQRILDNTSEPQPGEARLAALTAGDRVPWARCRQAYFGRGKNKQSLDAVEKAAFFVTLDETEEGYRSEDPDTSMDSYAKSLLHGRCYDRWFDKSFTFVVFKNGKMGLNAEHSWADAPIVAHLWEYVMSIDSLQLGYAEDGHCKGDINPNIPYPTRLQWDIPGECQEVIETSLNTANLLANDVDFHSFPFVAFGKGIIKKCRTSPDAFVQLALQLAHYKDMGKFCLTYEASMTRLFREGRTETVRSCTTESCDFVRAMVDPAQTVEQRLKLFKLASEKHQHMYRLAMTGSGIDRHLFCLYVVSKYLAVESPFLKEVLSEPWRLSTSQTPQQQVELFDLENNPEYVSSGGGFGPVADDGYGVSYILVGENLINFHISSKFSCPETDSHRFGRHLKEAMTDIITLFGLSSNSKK

[3] = molecular target: T2, Carnitine O-palmitoyltransferase 1, liver isoform (Rattus norvegicus, UniProt P32198); experiment: as §1
T2 sequence (P32198 whole entry): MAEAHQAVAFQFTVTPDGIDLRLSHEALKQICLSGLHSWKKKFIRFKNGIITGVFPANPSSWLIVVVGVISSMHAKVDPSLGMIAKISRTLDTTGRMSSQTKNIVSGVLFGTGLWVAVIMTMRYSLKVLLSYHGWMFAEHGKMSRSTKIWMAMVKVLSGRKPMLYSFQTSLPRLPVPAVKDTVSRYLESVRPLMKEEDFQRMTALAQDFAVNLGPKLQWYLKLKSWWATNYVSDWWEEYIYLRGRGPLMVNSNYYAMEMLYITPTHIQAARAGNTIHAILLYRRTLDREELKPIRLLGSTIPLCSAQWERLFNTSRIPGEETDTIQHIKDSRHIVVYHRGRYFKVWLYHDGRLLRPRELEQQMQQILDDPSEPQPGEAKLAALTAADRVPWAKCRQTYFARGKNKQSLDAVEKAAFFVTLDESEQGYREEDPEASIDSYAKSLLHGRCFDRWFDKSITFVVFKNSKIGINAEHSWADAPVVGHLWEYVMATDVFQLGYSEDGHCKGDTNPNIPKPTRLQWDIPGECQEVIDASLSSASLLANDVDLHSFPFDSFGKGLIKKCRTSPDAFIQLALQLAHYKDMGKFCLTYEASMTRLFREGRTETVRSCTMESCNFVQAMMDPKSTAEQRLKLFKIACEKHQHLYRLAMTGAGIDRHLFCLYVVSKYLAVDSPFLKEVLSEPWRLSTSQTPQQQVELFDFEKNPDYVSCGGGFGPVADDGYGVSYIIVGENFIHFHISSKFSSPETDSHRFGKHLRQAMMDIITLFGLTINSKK

[4] = molecular target: T3, Carnitine O-palmitoyltransferase 2, mitochondrial (Rattus norvegicus, UniProt P18886); experiment: (§2) SUPPLEMENTARY: Inhibition of Carnitine palmitoyltransferase 2
T3 sequence (P18886 whole entry): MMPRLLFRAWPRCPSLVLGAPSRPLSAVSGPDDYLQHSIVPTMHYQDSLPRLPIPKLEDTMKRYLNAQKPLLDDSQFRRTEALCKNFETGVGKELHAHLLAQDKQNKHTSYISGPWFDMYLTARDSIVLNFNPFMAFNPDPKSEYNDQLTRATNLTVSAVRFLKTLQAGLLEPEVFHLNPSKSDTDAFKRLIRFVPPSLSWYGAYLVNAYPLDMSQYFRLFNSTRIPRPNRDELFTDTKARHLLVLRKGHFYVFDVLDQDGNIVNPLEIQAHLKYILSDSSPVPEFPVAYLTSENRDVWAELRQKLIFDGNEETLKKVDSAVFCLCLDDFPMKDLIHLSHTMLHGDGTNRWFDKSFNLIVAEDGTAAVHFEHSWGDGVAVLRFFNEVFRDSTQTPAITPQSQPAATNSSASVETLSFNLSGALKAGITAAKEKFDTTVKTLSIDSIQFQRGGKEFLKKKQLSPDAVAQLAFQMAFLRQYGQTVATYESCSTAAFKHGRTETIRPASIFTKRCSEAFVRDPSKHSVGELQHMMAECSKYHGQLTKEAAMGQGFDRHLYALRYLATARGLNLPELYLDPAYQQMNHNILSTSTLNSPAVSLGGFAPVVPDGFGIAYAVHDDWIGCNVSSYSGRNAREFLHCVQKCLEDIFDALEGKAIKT

[5] = molecular target: T4, Carnitine O-palmitoyltransferase 2, mitochondrial (Homo sapiens, UniProt P23786); experiment: as §2
T4 sequence (P23786 whole entry): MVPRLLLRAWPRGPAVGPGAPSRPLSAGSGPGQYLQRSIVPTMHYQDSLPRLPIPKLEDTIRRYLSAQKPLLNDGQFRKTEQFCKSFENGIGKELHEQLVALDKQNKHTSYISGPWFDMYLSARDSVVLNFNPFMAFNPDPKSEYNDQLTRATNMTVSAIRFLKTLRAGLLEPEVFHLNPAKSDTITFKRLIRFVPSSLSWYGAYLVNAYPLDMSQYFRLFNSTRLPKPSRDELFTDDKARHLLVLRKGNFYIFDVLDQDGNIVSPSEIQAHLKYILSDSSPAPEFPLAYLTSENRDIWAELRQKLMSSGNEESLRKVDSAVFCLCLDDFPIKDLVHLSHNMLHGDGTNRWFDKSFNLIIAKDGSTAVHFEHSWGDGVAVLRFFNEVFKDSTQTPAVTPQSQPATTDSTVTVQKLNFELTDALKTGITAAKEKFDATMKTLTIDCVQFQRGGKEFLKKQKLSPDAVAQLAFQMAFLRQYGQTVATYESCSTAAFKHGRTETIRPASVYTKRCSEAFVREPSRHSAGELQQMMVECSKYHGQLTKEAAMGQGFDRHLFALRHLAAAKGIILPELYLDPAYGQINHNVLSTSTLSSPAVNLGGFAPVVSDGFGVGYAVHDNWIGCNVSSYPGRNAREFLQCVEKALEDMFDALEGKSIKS

[6] = SUPPLEMENTARY: PAMPA permeability assay; format: physicochemical; settings: read-out: Permeability
[7] = molecular target: T5, Carnitine O-palmitoyltransferase 1, muscle isoform (Homo sapiens, UniProt Q92523); experiment: SUPPLEMENTARY: Inhibition of Carnitine palmitoyltransferase 1, muscle isoform; design: species or system Muscle tissue
T5 sequence (Q92523 whole entry): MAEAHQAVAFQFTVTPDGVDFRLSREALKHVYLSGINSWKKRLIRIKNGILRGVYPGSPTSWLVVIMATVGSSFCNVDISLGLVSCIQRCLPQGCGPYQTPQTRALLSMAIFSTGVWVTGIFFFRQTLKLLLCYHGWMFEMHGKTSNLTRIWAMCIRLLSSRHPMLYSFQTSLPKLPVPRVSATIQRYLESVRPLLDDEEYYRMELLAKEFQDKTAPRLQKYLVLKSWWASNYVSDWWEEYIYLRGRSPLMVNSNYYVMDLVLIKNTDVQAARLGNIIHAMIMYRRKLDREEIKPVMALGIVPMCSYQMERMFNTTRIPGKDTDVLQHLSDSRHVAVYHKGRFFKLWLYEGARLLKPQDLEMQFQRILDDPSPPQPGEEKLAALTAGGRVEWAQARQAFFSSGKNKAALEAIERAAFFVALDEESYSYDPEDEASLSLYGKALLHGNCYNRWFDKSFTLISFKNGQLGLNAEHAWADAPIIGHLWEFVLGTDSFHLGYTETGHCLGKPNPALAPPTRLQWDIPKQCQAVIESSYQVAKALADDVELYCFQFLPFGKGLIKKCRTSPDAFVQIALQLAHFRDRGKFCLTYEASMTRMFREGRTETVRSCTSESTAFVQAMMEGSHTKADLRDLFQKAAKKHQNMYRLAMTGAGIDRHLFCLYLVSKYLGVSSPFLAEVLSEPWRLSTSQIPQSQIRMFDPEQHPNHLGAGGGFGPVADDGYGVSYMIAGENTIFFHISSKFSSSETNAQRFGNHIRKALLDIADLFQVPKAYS

| SMILES | solubility kinetic [1] [µg/mL] | IC50 [2] [nM] | IC50 [3] [nM] | IC50 [4] [nM] | IC50 [5] [nM] | Papp [6] [×10⁻⁶ cm/s] | IC50 [7] [nM] |
| --- | --- | --- | --- | --- | --- | --- | --- |
| COc1ccc(Cl)cc1CN1C(=O)C2(CC2)c2ccc(C(=O)Nc3ccc(C(=O)O)cc3)cc21 | 13 (≈ 27.3 µM) | 123 | 148 | 19600 | 1270 | 1.24 | 11000 |
| COc1ccc(Cl)cc1S(=O)(=O)N1COc2c(F)cc(C(=O)Nc3nc(CC(=O)O)cs3)cc21 | 309 (≈ 585 µM) | 31.2 | 52.3 | > 100000 | > 100000 | 2.24 | 553 |
| O=C(COc1ccccc1)N1CCCC[C@@H]1c1noc(C2C[C@@H]3CC[C@H]2C3)n1 (some centres undefined) | < 1 | 32.6 | 310 | > 100000 | 19900 |  | > 100000 |
| COc1ccc(Cl)cc1S(=O)(=O)N1COc2c(F)cc(C(=O)Nc3ccc(CC(=O)O)cc3)cc21 | 38 (≈ 72.9 µM) | 155 | 132 | > 100000 | > 100000 | 2.84 | 614 |
| COc1ccc(Cl)cc1Sc1cn(C)c2ccc(C(=O)Nc3ccc(C(=O)O)cc3)cc12 | 2 (≈ 4.28 µM) | 61.9 | 74 | > 100000 | > 100000 | 0.53 | > 100000 |
| COc1ccc(Cl)cc1CN1C(=O)COc2ccc(C(=O)Nc3nc(CC(=O)O)cs3)cc21 | 34 (≈ 69.7 µM) | 142 | 85.9 | > 100000 | > 100000 | 1.13 | 32400 |
| O=C(Nc1ccc(C(=O)O)c(F)c1)c1ccc2c(c1)N(S(=O)(=O)c1cccc(C(F)(F)F)c1)CCC2 | 10 (≈ 19.1 µM) | 126 | 74.8 | 6450 | 2230 | 2.13 | 9000 |
| COc1ccc(Cl)cc1S(=O)(=O)N1COc2c(F)cc(C(=O)Nc3ccc(C(=O)O)cc3)cc21 | 15 (≈ 29.6 µM) | 42.5 | 63.4 | > 100000 | 15100 | 2.2 | 17600 |
| COc1ccc(Cl)cc1S(=O)(=O)N1CCc2ccc(C(=O)Nc3ccc(C(=O)O)cc3)cc21 | 5 (≈ 10.3 µM) |  | 55 | 7820 |  | 2.78 | > 100000 |
| O=C([O-])c1cccc(-c2csc([C@H]3CCCCN3C(=O)COc3ccccc3)n2)c1.[Na+] | > 525 | 19.7 | 96.4 | 49600 | 28700 | 3.55 |  |
| Cc1cc(C)cc(S(=O)(=O)c2n[nH]c3ccc(C(=O)Nc4ccccc4)cc23)c1 | < 1 | 221 |  | > 100000 | > 100000 |  | > 100000 |
| O=C(COc1ccccc1)N1CCCCC1c1ncc(-c2cccc([N+](=O)[O-])c2)o1 (centres undefined) | 4 (≈ 9.82 µM) | 243 | 237 |  | 12800 | 0.66 | > 100000 |
| COc1ccc(Cl)cc1S(=O)(=O)N1CCSc2ccc(C(=O)Nc3ccc(C(=O)O)cc3)cc21 | 4 (≈ 7.71 µM) | 65.4 | 56.9 | > 100000 | > 100000 |  | > 100000 |
| O=C(COc1ccccc1)N1CCCC[C@@H]1c1nc(-c2cccc([N+](=O)[O-])n2)no1 | 10 (≈ 24.4 µM) | 254 | 760 |  | 17200 | 5.48 | > 100000 |
| O=C([C@H]1CCCCN1C(=O)COc1ccccc1)N1CCN(c2cc(Cl)cc(Cl)c2)CC1 |  | 198 | 388 | 961 | 3130 |  | > 100000 |
| O=C([C@H]1CCCCN1C(=O)COc1ccccc1)N1CCN(c2ccccn2)CC1 |  | 238 | 588 | 3350 | 1030 |  | > 100000 |
| COc1ccc(Cl)cc1S(=O)(=O)c1nn(C)c2ccc(C(=O)Nc3ccc(C(=O)O)c(Cl)c3)cc12 |  | 41.6 | 15.8 | 35100 | 21300 |  | 1680 |
